# Where two headings read alike, the source gives them in different places.
# Key:
# hERG = hERG (Homo sapiens, UniProt Q12809); assay: hERG patch clamp (Qpatch) selectivity; details: for selectivity ratio: human, selective for TRPA1 over hERG
# hTRPA1 [1] = target: T1, hTRPA1 (Homo sapiens, UniProt O75762, K186N); assay: TRPA1 patch clamp (perforated patch, AITC-activated current); type: cell-based
# T1 construct: expressed in transfected cells; host or cells: HEK293/TREx (Invitrogen), induced with tetracycline
# Description: Patch clamp experiments permit the detection of currents through the TRPA1 channel in the cell line described above. To permit recording of current at a stable level and prevent the “rundown” observed by other labs, it is necessary to use the perforated patch technique, which prevents dialysis of the cytoplasm with the pipette solution. In normal whole-cell patch clamp recordings, a glass electrode is brought into contact with a single cell and a high-resistance (gigaohm) seal is established with the cell membrane. The membrane is then ruptured to achieve the whole-cell configuration, permitting control of the voltage of the cell membrane and measurement of currents flowing across the membrane using the amplifier attached to the electrode and resulting in the replacement of cytoplasm with the pipette solution. In contrast, in the perforated patch mode, an antibiotic, amphotericin, is present in the pipette solution and diffuses into contact with the cell after the seal is achieved, over the course of several minutes. The amphotericin forms ion-permeable pores in the membrane under the pipette, permitting passage of some ions but maintaining most native cytosolic components. A perfusion system permits control of the extracellular solution, including the addition of blockers and activators of the current. The current can be activated by addition of 5 μM AITC to the solution. […] In some cases, cells were grown in low density overnight on glass coverslips. Patch clamp recordings were made in the whole-cell mode with a holding potential of −40 mV. Every 5 seconds, a voltage ramp was applied from −120 to +100 mV, 400 ms in duration. Currents elicited were quantified at −80 mV and +80 mV. […] The external solution consisted of 150 mM NaCl, 4.5 mM KCl, 3 mM MgCl2, 10 mM HEPES, […], 1 mM EGTA, pH 7.4. Upon addition of AITC, TRPA1 current was induced only in TRPA1-expressing cells and not in parental HEK293 TREx cells. Removal of the AITC stimulus causes most of the current to go away. Potential blockers were tested for ability to block both inward and outward currents in the continued presence of AITC.
# hTRPA1 [2] = target: T1, hTRPA1; assay: High throughput Ca2+ fluorescence (Fluo4) assay, AITC stimulation; type: cell-based
# Procedure, shortened: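 Tetracycline-induced HEK293/TREx cells loaded with 1 μM Fluo4/AM for 60 min at room temperature. Compound added for 2 min after a 4-frame baseline, then AITC; fluorescence followed ~3 min.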
# hNaV1.2 = hNaV1.2 (Homo sapiens, UniProt Q99250); assay: hNaV1.2 patch clamp (Qpatch) selectivity; type: cell-based
# hTRPV3 = target: T2, hTRPV3 (Homo sapiens, UniProt Q8NET8); assay: hTRPV3 patch clamp selectivity; type: cell-based; details: Table 2
# T2 sequence (Q8NET8 1-790): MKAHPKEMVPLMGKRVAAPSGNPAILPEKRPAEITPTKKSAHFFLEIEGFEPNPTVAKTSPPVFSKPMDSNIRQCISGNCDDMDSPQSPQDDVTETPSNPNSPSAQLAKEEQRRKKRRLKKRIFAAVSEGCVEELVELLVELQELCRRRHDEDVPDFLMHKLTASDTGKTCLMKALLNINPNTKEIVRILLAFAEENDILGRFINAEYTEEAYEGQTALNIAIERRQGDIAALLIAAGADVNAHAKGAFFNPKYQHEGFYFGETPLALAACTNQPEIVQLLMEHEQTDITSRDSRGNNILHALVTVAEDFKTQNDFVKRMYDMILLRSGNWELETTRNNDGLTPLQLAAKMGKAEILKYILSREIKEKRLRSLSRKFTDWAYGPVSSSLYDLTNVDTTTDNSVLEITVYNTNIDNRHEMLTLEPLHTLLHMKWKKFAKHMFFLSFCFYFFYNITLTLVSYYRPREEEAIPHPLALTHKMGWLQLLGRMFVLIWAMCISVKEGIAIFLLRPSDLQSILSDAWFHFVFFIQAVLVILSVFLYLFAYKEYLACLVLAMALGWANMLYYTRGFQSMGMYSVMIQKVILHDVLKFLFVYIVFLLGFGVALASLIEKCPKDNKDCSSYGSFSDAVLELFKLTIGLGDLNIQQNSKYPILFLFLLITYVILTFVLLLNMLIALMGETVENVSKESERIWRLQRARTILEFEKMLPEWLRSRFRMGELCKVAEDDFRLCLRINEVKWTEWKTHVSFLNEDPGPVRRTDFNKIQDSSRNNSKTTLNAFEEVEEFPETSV
# hTRPV4 = hTRPV4 (Homo sapiens, UniProt Q9HBA0); assay: hTRPV4 patch clamp selectivity; type: cell-based; details: Table 2
# [3] = Table 1, read-out: hTRPA1 Patch IC50
# [4] = Table 1, read-out: hTRPA1 Fluo4 IC50
# [5] = Table 2, inward current, read-out: hTRPA1 Patch Inwd IC50
# [6] = Table 2, read-out: hTRPA1 Fluor IC50
# [7] = Table 2, read-out: hNaV1.2 IC50
# hERG, sequence (Q12809 whole entry): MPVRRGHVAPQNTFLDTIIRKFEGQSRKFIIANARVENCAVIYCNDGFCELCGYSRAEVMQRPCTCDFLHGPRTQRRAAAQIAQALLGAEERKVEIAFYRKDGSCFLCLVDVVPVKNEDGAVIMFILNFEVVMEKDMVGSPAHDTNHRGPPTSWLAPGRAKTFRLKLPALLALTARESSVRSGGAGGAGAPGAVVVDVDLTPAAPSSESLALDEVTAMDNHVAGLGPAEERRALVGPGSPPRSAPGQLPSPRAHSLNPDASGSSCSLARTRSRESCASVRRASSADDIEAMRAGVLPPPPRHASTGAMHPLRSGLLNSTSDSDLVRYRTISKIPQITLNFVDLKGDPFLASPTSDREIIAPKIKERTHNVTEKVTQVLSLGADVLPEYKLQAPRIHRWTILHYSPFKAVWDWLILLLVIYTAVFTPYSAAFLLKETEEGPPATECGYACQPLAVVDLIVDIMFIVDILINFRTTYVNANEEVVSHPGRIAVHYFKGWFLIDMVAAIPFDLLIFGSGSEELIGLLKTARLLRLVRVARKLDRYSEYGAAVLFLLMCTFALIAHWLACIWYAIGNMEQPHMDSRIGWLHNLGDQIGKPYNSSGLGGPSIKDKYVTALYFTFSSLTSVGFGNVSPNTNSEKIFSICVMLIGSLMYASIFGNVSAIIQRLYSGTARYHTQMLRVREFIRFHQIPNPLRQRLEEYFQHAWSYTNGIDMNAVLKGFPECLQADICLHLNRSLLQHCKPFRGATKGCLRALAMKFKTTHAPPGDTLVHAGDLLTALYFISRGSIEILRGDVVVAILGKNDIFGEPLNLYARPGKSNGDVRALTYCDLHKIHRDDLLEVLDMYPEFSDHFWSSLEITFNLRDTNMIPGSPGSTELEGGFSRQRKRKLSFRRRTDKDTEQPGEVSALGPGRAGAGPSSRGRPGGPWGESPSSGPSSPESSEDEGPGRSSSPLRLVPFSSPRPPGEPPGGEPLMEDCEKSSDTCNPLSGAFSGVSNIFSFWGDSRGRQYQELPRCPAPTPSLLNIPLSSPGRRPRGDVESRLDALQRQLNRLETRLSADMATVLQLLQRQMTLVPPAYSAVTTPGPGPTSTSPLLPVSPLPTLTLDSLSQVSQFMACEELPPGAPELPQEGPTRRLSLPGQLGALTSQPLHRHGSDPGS
# T1 sequence (O75762 whole entry K186N): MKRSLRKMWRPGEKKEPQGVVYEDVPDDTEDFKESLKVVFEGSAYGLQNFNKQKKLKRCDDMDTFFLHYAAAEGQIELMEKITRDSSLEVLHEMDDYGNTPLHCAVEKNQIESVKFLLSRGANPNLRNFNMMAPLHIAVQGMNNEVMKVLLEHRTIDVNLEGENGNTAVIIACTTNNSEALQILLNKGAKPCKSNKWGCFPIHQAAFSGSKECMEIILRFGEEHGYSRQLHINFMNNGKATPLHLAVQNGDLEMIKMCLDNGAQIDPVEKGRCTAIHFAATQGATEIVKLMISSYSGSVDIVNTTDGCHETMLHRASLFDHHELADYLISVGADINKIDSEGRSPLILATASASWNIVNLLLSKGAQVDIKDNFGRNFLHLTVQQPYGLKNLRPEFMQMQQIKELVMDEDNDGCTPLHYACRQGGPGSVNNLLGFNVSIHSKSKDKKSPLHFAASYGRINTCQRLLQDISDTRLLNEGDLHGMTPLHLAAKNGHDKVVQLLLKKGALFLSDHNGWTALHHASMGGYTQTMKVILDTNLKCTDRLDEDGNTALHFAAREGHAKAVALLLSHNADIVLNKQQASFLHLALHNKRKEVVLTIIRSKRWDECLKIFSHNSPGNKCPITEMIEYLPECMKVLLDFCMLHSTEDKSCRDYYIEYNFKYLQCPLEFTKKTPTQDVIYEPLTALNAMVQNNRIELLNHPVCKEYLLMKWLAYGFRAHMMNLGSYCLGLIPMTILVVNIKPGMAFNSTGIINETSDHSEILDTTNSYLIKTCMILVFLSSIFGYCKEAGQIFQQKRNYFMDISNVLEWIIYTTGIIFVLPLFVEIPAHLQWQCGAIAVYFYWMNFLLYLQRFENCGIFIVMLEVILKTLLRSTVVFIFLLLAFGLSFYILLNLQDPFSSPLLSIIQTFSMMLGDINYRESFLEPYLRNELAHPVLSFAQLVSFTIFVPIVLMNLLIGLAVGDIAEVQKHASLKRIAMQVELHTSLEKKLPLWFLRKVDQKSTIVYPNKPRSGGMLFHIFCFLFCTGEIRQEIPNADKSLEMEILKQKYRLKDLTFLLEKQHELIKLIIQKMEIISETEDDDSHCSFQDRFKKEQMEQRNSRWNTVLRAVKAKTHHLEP
# hNaV1.2, sequence (Q99250 whole entry): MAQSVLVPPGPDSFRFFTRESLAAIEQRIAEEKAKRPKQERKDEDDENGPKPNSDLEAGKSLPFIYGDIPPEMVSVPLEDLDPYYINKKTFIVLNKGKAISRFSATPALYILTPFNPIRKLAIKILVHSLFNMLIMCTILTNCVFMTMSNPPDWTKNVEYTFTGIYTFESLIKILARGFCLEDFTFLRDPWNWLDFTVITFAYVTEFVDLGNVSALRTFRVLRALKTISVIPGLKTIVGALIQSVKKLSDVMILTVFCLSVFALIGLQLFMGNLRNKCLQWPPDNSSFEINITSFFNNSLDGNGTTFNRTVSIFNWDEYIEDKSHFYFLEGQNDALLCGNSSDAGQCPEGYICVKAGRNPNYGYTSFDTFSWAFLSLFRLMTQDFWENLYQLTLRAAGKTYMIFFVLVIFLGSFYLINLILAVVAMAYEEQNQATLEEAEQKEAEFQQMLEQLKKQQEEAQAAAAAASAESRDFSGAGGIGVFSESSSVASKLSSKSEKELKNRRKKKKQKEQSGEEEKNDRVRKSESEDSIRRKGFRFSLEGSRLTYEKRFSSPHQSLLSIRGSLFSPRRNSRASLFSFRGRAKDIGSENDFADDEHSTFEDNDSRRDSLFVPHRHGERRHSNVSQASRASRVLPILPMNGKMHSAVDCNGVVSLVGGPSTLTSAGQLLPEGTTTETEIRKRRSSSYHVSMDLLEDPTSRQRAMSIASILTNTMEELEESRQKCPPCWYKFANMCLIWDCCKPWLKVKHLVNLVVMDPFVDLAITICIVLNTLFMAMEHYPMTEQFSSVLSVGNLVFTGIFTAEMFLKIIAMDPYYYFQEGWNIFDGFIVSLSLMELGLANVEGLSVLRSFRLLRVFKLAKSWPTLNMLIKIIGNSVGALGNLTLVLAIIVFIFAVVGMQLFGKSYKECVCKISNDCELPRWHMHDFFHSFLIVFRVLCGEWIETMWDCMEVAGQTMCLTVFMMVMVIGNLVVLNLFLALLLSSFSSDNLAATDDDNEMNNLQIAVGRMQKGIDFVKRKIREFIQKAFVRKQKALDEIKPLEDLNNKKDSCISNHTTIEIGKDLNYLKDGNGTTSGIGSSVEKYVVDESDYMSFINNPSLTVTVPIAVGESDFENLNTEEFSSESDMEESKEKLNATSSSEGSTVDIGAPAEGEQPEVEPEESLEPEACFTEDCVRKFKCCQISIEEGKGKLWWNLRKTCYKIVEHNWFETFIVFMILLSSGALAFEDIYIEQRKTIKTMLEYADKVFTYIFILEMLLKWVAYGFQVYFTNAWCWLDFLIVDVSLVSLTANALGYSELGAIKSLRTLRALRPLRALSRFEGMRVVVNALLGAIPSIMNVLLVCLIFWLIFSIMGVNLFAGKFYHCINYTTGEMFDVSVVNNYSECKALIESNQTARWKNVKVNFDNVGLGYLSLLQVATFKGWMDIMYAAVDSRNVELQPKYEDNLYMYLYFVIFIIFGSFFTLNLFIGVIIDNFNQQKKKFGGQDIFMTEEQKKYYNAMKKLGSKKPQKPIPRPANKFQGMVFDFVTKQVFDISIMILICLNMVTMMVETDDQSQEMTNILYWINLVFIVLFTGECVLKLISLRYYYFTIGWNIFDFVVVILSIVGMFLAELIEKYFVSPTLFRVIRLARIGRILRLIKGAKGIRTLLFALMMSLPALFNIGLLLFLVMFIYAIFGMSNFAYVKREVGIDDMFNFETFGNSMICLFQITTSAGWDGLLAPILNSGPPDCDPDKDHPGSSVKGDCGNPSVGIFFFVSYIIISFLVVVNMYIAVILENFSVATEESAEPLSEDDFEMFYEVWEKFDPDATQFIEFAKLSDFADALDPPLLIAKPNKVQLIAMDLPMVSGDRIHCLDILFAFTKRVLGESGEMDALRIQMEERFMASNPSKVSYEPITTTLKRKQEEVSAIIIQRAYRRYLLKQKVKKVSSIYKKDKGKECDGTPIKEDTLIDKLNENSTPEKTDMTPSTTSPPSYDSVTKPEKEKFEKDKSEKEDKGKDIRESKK
# hTRPV4, sequence (Q9HBA0 whole entry): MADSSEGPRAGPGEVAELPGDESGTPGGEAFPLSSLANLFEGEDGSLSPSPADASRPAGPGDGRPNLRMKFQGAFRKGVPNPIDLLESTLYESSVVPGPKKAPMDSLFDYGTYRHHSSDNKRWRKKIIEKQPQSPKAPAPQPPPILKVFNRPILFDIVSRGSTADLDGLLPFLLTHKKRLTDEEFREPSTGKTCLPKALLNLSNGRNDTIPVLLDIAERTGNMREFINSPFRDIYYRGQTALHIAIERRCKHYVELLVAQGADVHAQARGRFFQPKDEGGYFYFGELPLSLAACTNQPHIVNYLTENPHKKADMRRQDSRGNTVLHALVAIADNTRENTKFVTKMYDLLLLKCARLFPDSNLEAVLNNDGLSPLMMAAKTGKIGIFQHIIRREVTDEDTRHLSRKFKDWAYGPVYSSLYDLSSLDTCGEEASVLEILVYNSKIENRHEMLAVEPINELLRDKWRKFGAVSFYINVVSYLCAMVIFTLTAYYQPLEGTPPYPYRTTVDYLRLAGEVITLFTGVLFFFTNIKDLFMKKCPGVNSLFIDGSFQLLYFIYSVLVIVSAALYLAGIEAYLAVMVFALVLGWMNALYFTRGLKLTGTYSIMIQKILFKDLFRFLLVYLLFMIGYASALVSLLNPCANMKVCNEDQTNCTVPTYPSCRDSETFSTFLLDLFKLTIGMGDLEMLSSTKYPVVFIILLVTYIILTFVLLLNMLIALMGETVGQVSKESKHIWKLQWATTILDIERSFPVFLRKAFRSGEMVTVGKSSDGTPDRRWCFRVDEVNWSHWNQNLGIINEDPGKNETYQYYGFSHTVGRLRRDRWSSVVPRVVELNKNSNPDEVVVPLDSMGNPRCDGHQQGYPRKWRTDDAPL
SMILES,IC50 (hTRPA1 [1]; [5]),IC50 (hTRPA1 [2]; [6]),selective for TRPA1 over NaV1.2 (hNaV1.2; Table 2),IC50 (hNaV1.2; [7]),"IC50 (hERG; hERG IC50 (nM), Table 2)",selectivity ratio (hERG; Table 2),further results
CCOC(=O)C1=C(c2ccccc2)NC(=S)NC1c1ccccc1Cl (stereo not drawn),,,,,,,"IC50 (hERG; hERG Qpatch IC50 (nM), Table 1): ≥ 20000 nM; selectivity ratio (hERG; Table 1): ≥ 10; IC50 (hTRPA1 [1]; [3]): ≤ 5 µM; IC50 (hTRPA1 [2]; [4]): > 10 µM"
CCOC(=O)C1=C(c2ccccc2)NC(=S)NC1c1ccccc1Br (stereo not drawn),,,,,,,"IC50 (hERG; hERG Qpatch IC50 (nM), Table 1): > 10000 nM; selectivity ratio (hERG; Table 1): ≥ 5; IC50 (hTRPA1 [1]; [3]): ≤ 5 µM; IC50 (hTRPA1 [2]; [4]): > 10 µM"
Cn1c(=O)c2c(ncn2CC(=O)Nc2ccc(Br)cc2)n(C)c1=O [Compound 202],≤ 5 µM,≤ 5 µM,,,> 10000 nM,,selective for TRPA1 over hERG (hERG; Table 2): ≥ 5 fold
CCC(C)c1ccc(NC(=O)Cn2cnc3c2c(=O)n(C)c(=O)n3C)cc1 (stereo not drawn) [Compound 215],≤ 1 µM,≤ 5 µM,≥ 55 fold,≥ 30 µM,≥ 10000 nM,≥ 25,
Cn1c(=O)c2c(ncn2CC(=O)Nc2ccc(Cl)c(Cl)c2)n(C)c1=O [Compound 217],≤ 1 µM,≤ 10 µM,≥ 50 fold,≥ 30 µM,≥ 20000 nM,≥ 45,
Cn1c(=O)c2c(ncn2CC(=O)Nc2ccc(Br)cc2)n(C)c1=O [Compound 219],≤ 5 µM,≤ 5 µM,≥ 25 fold,≥ 30 µM,≥ 20000 nM,,selective for TRPA1 over hERG (hERG; Table 2): ≥ 15 fold
Cn1c(=O)c2c(ncn2CC(=O)Nc2nc3ccccc3s2)n(C)c1=O [Compound 239],≤ 5 µM,≤ 5 µM,,,,,selective for TRPA1 over TRPV3 (hTRPV3): ≥ 4 fold; IC50 (hTRPV3; read-out: hTRPV3 P1 inward IC50): ≤ 10 µM
CCc1ccc(-c2csc(NC(=O)Cn3cnc4c3c(=O)n(C)c(=O)n4C)n2)cc1 [Compound 271],≤ 0.5 µM,≤ 5 µM,,,≥ 30000 nM,≥ 150,
Cn1c(=O)c2c(ncn2CC(=O)Nc2ccc3c(c2)OC2(CCCCC2)O3)n(C)c1=O [Compound 347],≤ 1 µM,≤ 1 µM,,,≥ 20000 nM,≥ 45,IC50 (hTRPV4): > 10 µM; selective for TRPA1 over TRPV4 (hTRPV4): ≥ 15 fold
Cn1c(=O)c2c(ncn2CC(=O)NCC(C)(c2ccccc2)c2ccccc2)n(C)c1=O [Compound 348],> 10 µM,≤ 5 µM,,,,,
CCOC(=O)C1=C(c2ccccc2)NC(=S)NC1c1cc(O)ccc1Br (stereo not drawn) [drawing 49],,,,,,,"IC50 (hERG; hERG Qpatch IC50 (nM), Table 1): ≥ 20000 nM; selectivity ratio (hERG; Table 1): ≥ 30; IC50 (hTRPA1 [1]; [3]): ≤ 1 µM; selective for TRPA1 over NaV1.2 (hNaV1.2; Table 1): ≥ 40 fold; IC50 (hNaV1.2; Table 1, read-out: hNaV1.2 Qpatch IC50): ≥ 30 µM; IC50 (hTRPA1 [2]; [4]): ≤ 1 µM"

# Continued, in another order:
IC50 (hTRPA1 [1]; [5]),IC50 (hTRPA1 [2]; [6]),selective for TRPA1 over NaV1.2 (hNaV1.2; Table 2),IC50 (hNaV1.2; [7]),SMILES,"IC50 (hERG; hERG IC50 (nM), Table 2)",selectivity ratio (hERG; Table 2),further results
≤ 10 µM,≤ 5 µM,≥ 5 fold,≥ 30 µM,Cn1c(=O)c2c(ncn2CC(=O)Nc2cccc(C(F)(F)F)c2)n(C)c1=O [Compound 226],> 10000 nM,≥ 2,
≤ 0.5 µM,≤ 1 µM,≥ 75 fold,≥ 30 µM,Cn1c(=O)c2c(ncn2CC(=O)Nc2nc(-c3ccc(Br)cc3)cs2)n(C)c1=O [Compound 232],≥ 30000 nM,≥ 75,
≤ 0.5 µM,≤ 5 µM,,,CCOc1ccc(Oc2ccc(NC(=O)Cn3cnc4c3c(=O)n(C)c(=O)n4C)cc2)cc1 [Compound 284],≤ 5000 nM,≥ 10,
> 10 µM,> 10 µM,,,Cn1c(=O)c2c(ncn2CC(=O)Nc2ccccc2N2CCCC2)n(C)c1=O [Compound 350],,,
≤ 5 µM,≤ 5 µM,,,Cn1c(=O)c2c(ncn2CC(=O)Nc2ccc(Br)cc2F)n(C)c1=O [Compound 371],,,
